Where two headings read alike, the source gives them in different places.
Key:
DR5 [1] = conditions: for DR5 expression, MFI: 24 hours, FIG. 20
Text: Bortezomib was bought from Millennium Pharmaceuticals.

DR4 = DR4 (Homo sapiens, UniProt O00220); conditions: surface plasmon resonance; WO 2009/077857; cited from earlier work
decoy receptor DcR1 = target: T1, decoy receptor DcR1 (Homo sapiens, UniProt O14798); conditions: surface plasmon resonance; WO 2009/077857; cited from earlier work
T1 sequence (O14798 26-236): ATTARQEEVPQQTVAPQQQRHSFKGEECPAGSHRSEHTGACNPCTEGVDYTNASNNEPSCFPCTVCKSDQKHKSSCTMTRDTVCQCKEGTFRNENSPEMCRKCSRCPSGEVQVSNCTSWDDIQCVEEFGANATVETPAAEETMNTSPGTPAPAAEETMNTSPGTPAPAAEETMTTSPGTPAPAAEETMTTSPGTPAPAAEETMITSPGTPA

CTLA4 gene = experiment: gRNA cleavage in K562 cells, T7E1 mismatch detection assay; assay type: cell-based, human; conditions: FIG. 7
Procedure: (§1) Cells having inhibitory receptor function removed were prepared as follows. gRNA constructs were designed and prepared to target genes encoding the ‘classical’ inhibitory receptor LIR2 and the ‘checkpoint’ inhibitory receptor CTLA4 in the human genome of NK cells. CRISPR/Cas9 genome editing was then used to knock out the LIR2 and CTLA4 target genes.
(§2) Two gRNA candidates were selected for each target gene and their cleavage efficacies in K562 cells determined.
(§3) K562 cells were transfected with the prepared gRNA constructs (FIG. 5) and subsequently harvested for PCR amplification. The presence of GFP expression was used to report successful incorporation of the gRNA construct into the K562 cells. This confirmed expression of the Cas9 gene and therefore the ability to knock out expression of the LIR2 and CTLA4 genes. The cleavage activity of the gRNA constructs was determined using an in vitro mismatch detection assay. T7E1 endonuclease I recognizes and cleaves non-perfectly matched DNA, allowing the parental LIR2 and CTLA4 genes to be compared to the mutated genes following CRISPR/Cas9 transfection and non-homologous end joining (NHEJ).

LIR2 gene = experiment: as above; assay type: cell-based, human; conditions: FIG. 6
Procedure: as §1, §2, §3
The three bands corresponding to each mutation relate to the parental gene (601) and the two resulting strands following detection of a mismatch in the DNA sequence after transfection (602 and 603).

DR5 [2] = target: DR5 (Homo sapiens, UniProt O14763); conditions: D269H/E195R mutation, relative to wildtype TRAIL; cited from earlier work
[3] = system: decoy receptors (DcR1 and DcR2); conditions: D269H/E195R mutation, relative to wildtype TRAIL; cited from earlier work

CC(C)C[C@H](NC(=O)[C@H](Cc1ccccc1)NC(=O)c1cnccn1)B(O)O [Bortezomib]
DR5 expression, MFI (DR5 [1]; MM1.S cells, 2.5 nm of Bortezomib, untreated MFI 214): 662
DR5 expression, MFI (DR5 [1]; RPMI 8226 cells, 10 nm Bortezomib, untreated MFI 273): 679
DR5 expression at high doses (DR5 [1]; high doses of Bortezomib): could not be upregulated

Wildtype TRAIL: TNF-related apoptosis-inducing ligand, wild-type protein
Kd (DR4): > 0.002 µM
Kd (decoy receptor DcR1): > 0.02 µM

g7 gRNA: gRNA targeting hCTLA4, CACTCACCTTTGCAGAAGACAGG (SEQ ID NO: 26) (listed as DNA, chemistry not fully specified; listed as Homo sapiens)
success rate of transfection (CTLA4 knockout) (CTLA4 gene): 32%

g9 gRNA: gRNA targeting hLIR2, GAGTCACAGGTGGCATTTGGCGG (SEQ ID NO: 24) (listed as DNA, chemistry not fully specified; listed as Homo sapiens)
success rate of transfection (LIR2 knockout) (LIR2 gene): 11%

g15 gRNA: gRNA targeting hCTLA4, CCTTGTGCCGCTGAAATCCAAGG (SEQ ID NO: 27) (listed as DNA, chemistry not fully specified; listed as Homo sapiens)
success rate of transfection (CTLA4 knockout) (CTLA4 gene): 26%

g18 gRNA: gRNA targeting hLIR2, CGAATCGCAGGTGGTCGCACAGG (SEQ ID NO: 25) (listed as DNA, chemistry not fully specified; listed as Homo sapiens)
success rate of transfection (LIR2 knockout) (LIR2 gene): 10%

B1: TRAIL variant: TRAIL variant of WO 2009/077857, wildtype TRAIL gene containing the D269H/E195R mutation (protein)
chain: MAMMEVQGGPSLGQTCVLIVIFTVLLQSLCVAVTYVYFTNELKQMQDKYSKSGIACFLKEDDSYWDPNDEESMNSPCWQVKWQLRQLVRKMILRTSEETISTVQEKQQNISPLVRERGPQRVAAHITGTRGRSNTLSSPNSKNEKALGRKINSWESSRSGHSFLSNLHLRNGELVIHEKGFYYIYSQTYFRFQERIKENTKNDKQMVQYIYKYTSYPDPILLMKSARNSCWSKDAEYGLYSIYQGGIFELKENDRIFVSVTNEHLIDMHHEASFFGAFLVG
affinity of the TRAIL variant for DR5 (DR5 [2]): significantly increases
affinity for both decoy receptors (DcR1 and DcR2) [3]: reducing

— US10799536B2, “Method of treating multiple myeloma using natural killer cells expressing a chimeric antigen receptor for CD38” (Onkimmune Limited, priority 2016, dated 2020)
